For 20 molecules, TGI and GI50 results are on record in PubChem BioAssay (NCI).

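Tested at 5 concentrations; 48 h exposure; 96-well plates; endpoints linearly interpolated, else capped at highest concentration. GI50: concentration for 50% inhibition of growth. TGI: concentration producing complete growth inhibition.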 Where only a bound is given, the exact number is not on record here.

Broadly, the TGI is the concentration at which net growth stops. A low value points to more potent growth arrest. The term GI50 denotes the concentration that inhibits growth by half.

Some test systems named below: DLD-1 colon; DMS 114 small cell lung; KM20L2 colon; LXFL 529 NSCLC; M19-MEL melanoma; SNB-78 CNS; MDA-N; HOP-18 NSCLC.
Test in all cases: DTP human tumour cell line panel, 48 h

As to `O=C(N/C(=C\c1cc(Cl)ccc1Cl)c1nc2ccc(Cl)cc2[nH]1)c1ccccc1`, the TGI in the test with DLD-1 colon was determined as 26.7 µM; with DMS 114 small cell lung it was 29.8 µM; with KM20L2 colon, 32.2 µM; in the test on LXFL 529 NSCLC, 28.1 µM; in the test with M19-MEL melanoma it was 30 µM; in the test on SNB-78 CNS, 54.8 µM.
Regarding `CC1(C)CC2=C(Sc3ccccc3N2)C(=O)C1C(=O)C(=O)Nc1cc(Cl)ccc1Cl` (configuration not stated), the TGI with MDA-N was more than 100 µM.
In the case of `COC/N=C(/N)NC#N`, the TGI in the test with DLD-1 colon was more than 100 µM; in the test on DMS 114 small cell lung, 37.6 µM; with HOP-18 NSCLC it was more than 100 µM; in the test on KM20L2 colon, more than 100 µM; in the test on LXFL 529 NSCLC, more than 100 µM; with M19-MEL melanoma, more than 100 µM. The same molecule displayed a TGI with SNB-78 CNS of more than 100 µM.
For `C/C(=C\Cc1cc(O)ccc1O)CCc1c(C)c(O)c(O)c(C=O)c1C`, the TGI is 56.8 µM with DLD-1 colon; 34 µM in the test with DMS 114 small cell lung; 59.9 µM in the test with HOP-18 NSCLC; more than 100 µM in the test on KM20L2 colon; 32.4 µM in the test on LXFL 529 NSCLC; 38.8 µM with M19-MEL melanoma.
In the case of `COC(=O)/C(C#N)=C1\CCc2ccccc21`, the TGI in the test on DLD-1 colon, in the test with DMS 114 small cell lung, in the test with KM20L2 colon, in the test on LXFL 529 NSCLC and in the test on M19-MEL melanoma was more than 100 µM in each case.
Turning to `Cc1cc(C)nc(NS(=O)(=O)c2ccc(NC(=O)c3cccn4c(=O)c5ccccc5nc34)cc2)n1`, the TGI with DLD-1 colon, with KM20L2 colon, with LXFL 529 NSCLC, in the test on M19-MEL melanoma and in the test on SNB-78 CNS was more than 100 µM each time.
`O=C1c2ccccc2C(=O)N1C1(C(=O)NC2(C(=O)O)CCCC2)CCCC1`: the TGI in the test with MDA-N was more than 100 µM.
In the case of `N.N.N.N.N.O=S(=O)([O-])C(F)(F)F.O=S(=O)([O-])C(F)(F)F.[Os+8]`, the GI50 with KM20L2 colon was 20.7 µM; in the test with LXFL 529 NSCLC it was 9.12 µM; in the test with SNB-78 CNS it was 6.19 µM. The TGI in the test with KM20L2 colon came to 45.3 µM; with LXFL 529 NSCLC, 23.8 µM; with SNB-78 CNS, 77.6 µM.
Take `CC1=NN(C(=O)c2ccc(Cl)cc2)C(=O)/C1=C/c1ccc(Cl)cc1`: the total growth inhibition concentration (TGI) with DLD-1 colon, in the test on DMS 114 small cell lung, with KM20L2 colon, in the test with LXFL 529 NSCLC, with M19-MEL melanoma and in the test with SNB-78 CNS was more than 100 µM in each case.
On to `CCCCc1c2c(nc3c1CCc1cc4cc5c(nc4nc1-3)-c1nc3c(c(CCCC)c1CC5)CCC/C3=C\c1ccccc1)/C(=C/c1ccccc1)CCC2`, for which the TGI with DLD-1 colon, in the test with DMS 114 small cell lung, in the test on KM20L2 colon, in the test on LXFL 529 NSCLC and in the test with SNB-78 CNS was more than 100 µM throughout.
Turning to `CC(=O)Nc1ccc(C(=O)NN2C(=O)C(Cl)C2c2ccc(O)cc2)cc1` (configuration not stated), the TGI in the test on DLD-1 colon, with KM20L2 colon, in the test with LXFL 529 NSCLC, with M19-MEL melanoma and in the test with SNB-78 CNS was more than 100 µM in each case.
On to `COC1(C)C(=O)N2C1N(C(=O)OCc1ccccc1)CC2(C)C` (configuration not stated), for which the TGI in the test with DLD-1 colon, with DMS 114 small cell lung, in the test on KM20L2 colon, in the test on LXFL 529 NSCLC and in the test on M19-MEL melanoma was more than 100 µM in each case.
Molecule `NCCC(=O)NC(Cc1cnc[nH]1)C(=O)O` (configuration not stated) yielded a TGI in the test on MDA-N of more than 100 µM.
For `Nc1cc2cccc[n+]2c2cccc(Cl)c12`, in the test with MDA-N, the GI50 was 21.3 µM and the TGI is 61.5 µM.
For the molecule `Nc1ccc(C(=O)NN2C(=O)C(Cl)C2c2cccc(O)c2)cc1` (configuration not stated), the TGI in the test on DLD-1 colon was determined as 28.4 µM; with DMS 114 small cell lung, 19.9 µM; with KM20L2 colon, 31.8 µM; in the test on LXFL 529 NSCLC, 24.3 µM; with M19-MEL melanoma, 38.3 µM; in the test with SNB-78 CNS it was 40.2 µM.
As for `O=C(CCc1nc(=S)[nH][nH]1)Nc1cccc(C(F)(F)F)c1`, the TGI with DLD-1 colon, in the test with DMS 114 small cell lung, with HOP-18 NSCLC, in the test with KM20L2 colon, with LXFL 529 NSCLC and in the test with SNB-78 CNS was more than 100 µM throughout.
The molecule `CCN(CC)C(=O)COc1cc2c(O)c3c(O)c(C)c4c(c13)C(=O)C(C)(OC=CC(OC)C(C)C(OC(C)=O)C(C)C(O)C(C)C(O)C(C)C=CC=C(C)C(=O)N2)O4` (configuration not stated) registered a TGI with MDA-N of more than 100 µM.
Turning to `N#CC(C#N)=C(N)/C(C#N)=C/c1ccc2[nH]ccc2c1`, the TGI in the test with DMS 114 small cell lung, with HOP-18 NSCLC, in the test on KM20L2 colon, in the test with M19-MEL melanoma, with MDA-N and with SNB-78 CNS was more than 100 µM each time.
As to `COc1cc2c(c(OC)c1OC)-c1c(cc3c(c1OC)OCO3)CC(C)C(C)(O)C2OC(=O)c1ccccc1` (configuration not stated), the TGI in the test with MDA-N is more than 100 µM.
As for `O=C(NCC(=O)N1CCOC1=O)OCc1ccccc1`, the TGI with DLD-1 colon, with DMS 114 small cell lung, with HOP-18 NSCLC, in the test on KM20L2 colon, in the test on M19-MEL melanoma and in the test with SNB-78 CNS was more than 100 µM each time.
